From patent US9969694B2, “N-(arylalkyl)-N′-pyrazolyl-urea, thiourea, guanidine and cyanoguanidine compounds as TrkA kinase inhibitors” (Array BioPharma Inc., priority 2012, dated 2018)

What was measured:
[1] = molecular target: T1, His-tagged recombinant human TrkA (Homo sapiens, UniProt P04629); assay: TrkA Kinase Binding Assay (LanthaScreen Eu); conditions: averaged IC50; TR-FRET binding, 60 min, 22° C.; read-out: TrkA Enzyme IC50
T1 construct: 6HIS tagged cytoplasmic domain from Invitrogen, Catalog No. PV3144; purchased Invitrogen PV3144
Method in brief: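 TR-FRET tracer displacement: 5 nM His-tagged TrkA cytoplasmic domain with 4 nM Tracer 236, biotinylated anti-His and Eu-streptavidin in pH 7.5 MOPS buffer, 2% DMSO, 60 min at 22 °C. 665/615 nm emission ratio gave percent of control; IC50 from four-parameter fit.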

MuSK = molecular target: T2, MuSK (Homo sapiens, UniProt O15146); assay: Off-Target Kinase Profiling; type: biochemical; conditions: 10 μM; ATP near Km
T2 construct: purchased Millipore, Inc. (KinaseProfiler service)
Method in brief: (§1)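 A broad-panel off-target screen tests compounds at 10 μM against each kinase under ATP concentrations close to Km. Two replicates are run and their mean POC is given.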

LOK = molecular target: T3, LOK (Homo sapiens, UniProt O94804); assay: Off-Target Kinase Profiling; type: biochemical; conditions: 10 μM; ATP near Km
T3 construct: purchased Millipore, Inc. (KinaseProfiler service)
Method in brief: as §1

CK1gamma2 = molecular target: T4, CK1gamma2 (Homo sapiens, UniProt P78368); assay: Off-Target Kinase Profiling; type: biochemical; conditions: 10 μM; ATP near Km
T4 construct: purchased Millipore, Inc. (KinaseProfiler service)
Method in brief: as §1

MRCKbeta = molecular target: T5, MRCKbeta (Homo sapiens, UniProt Q9Y5S2); assay: Off-Target Kinase Profiling; type: biochemical; conditions: 10 μM; ATP near Km
T5 construct: purchased Millipore, Inc. (KinaseProfiler service)
Method in brief: as §1

Lyn = molecular target: T6, Lyn (Homo sapiens, UniProt P07948); assay: Off-Target Kinase Profiling; type: biochemical; conditions: 10 μM; ATP near Km
T6 construct: purchased Millipore, Inc. (KinaseProfiler service)
Method in brief: as §1

WNK2 = molecular target: T7, WNK2 (Homo sapiens, UniProt Q9Y3S1); assay: Off-Target Kinase Profiling; type: biochemical; conditions: 10 μM; ATP near Km
T7 construct: purchased Millipore, Inc. (KinaseProfiler service)
Method in brief: as §1

MARK1 = molecular target: T8, MARK1 (Homo sapiens, UniProt Q9P0L2); assay: Off-Target Kinase Profiling; type: biochemical; conditions: 10 μM; ATP near Km
T8 construct: purchased Millipore, Inc. (KinaseProfiler service)
Method in brief: as §1

CK2alpha2 = molecular target: T9, CK2alpha2 (Homo sapiens, UniProt P19784); assay: Off-Target Kinase Profiling; type: biochemical; conditions: 10 μM; ATP near Km
T9 construct: purchased Millipore, Inc. (KinaseProfiler service)
Method in brief: as §1

Ret = molecular target: T10, Ret (Homo sapiens, UniProt P07949); assay: Off-Target Kinase Profiling; type: biochemical; conditions: 10 μM; ATP near Km
T10 construct: purchased Millipore, Inc. (KinaseProfiler service)
Method in brief: as §1

CAMK2d = molecular target: T11, CAMK2d (Homo sapiens, UniProt Q13557); assay: Off-Target Kinase Profiling; type: biochemical; conditions: 10 μM; ATP near Km
T11 construct: purchased Millipore (KinaseProfiler service)
Method in brief: as §1

SRC = molecular target: T12, SRC (Homo sapiens, UniProt P12931); assay: Off-Target Kinase Profiling; type: biochemical; conditions: 10 μM; ATP near Km
T12 construct: purchased Millipore, Inc. (KinaseProfiler service)
Method in brief: as §1

RIPK2 = molecular target: T13, RIPK2 (Homo sapiens, UniProt O43353); assay: Off-Target Kinase Profiling; type: biochemical; conditions: 10 μM; ATP near Km
T13 construct: purchased Millipore, Inc. (KinaseProfiler service)
Method in brief: as §1

JNK2alpha2 = molecular target: T14, JNK2alpha2 (Homo sapiens, UniProt P45984); assay: Off-Target Kinase Profiling; type: biochemical; conditions: 10 μM; ATP near Km
T14 construct: purchased Millipore, Inc. (KinaseProfiler service)
Method in brief: as §1

IRR = molecular target: T15, IRR (Homo sapiens, UniProt P14616); assay: Off-Target Kinase Profiling; type: biochemical; conditions: 10 μM; ATP near Km
T15 construct: purchased Millipore, Inc. (KinaseProfiler service)
Method in brief: as §1

Abl-P = molecular target: T16, Abl-P (Homo sapiens, UniProt P00519); assay: Off-Target Kinase Profiling; type: biochemical; conditions: 10 μM; ATP near Km
T16 construct: purchased Millipore (KinaseProfiler service)
Method in brief: as §1

CDK1/cyclinB = molecular target: T17, CDK1/cyclinB (Homo sapiens, UniProt P06493); assay: Off-Target Kinase Profiling; type: biochemical; conditions: 10 μM; ATP near Km
T17 construct: purchased Millipore (KinaseProfiler service)
Method in brief: as §1

PKCeta = molecular target: T18, PKCeta (Homo sapiens, UniProt P24723); assay: Off-Target Kinase Profiling; type: biochemical; conditions: 10 μM; ATP near Km
T18 construct: purchased Millipore, Inc. (KinaseProfiler service)
Method in brief: as §1

TLK2 = molecular target: T19, TLK2 (Homo sapiens, UniProt Q86UE8); assay: Off-Target Kinase Profiling; type: biochemical; conditions: 10 μM; ATP near Km
T19 construct: purchased Millipore, Inc. (KinaseProfiler service)
Method in brief: as §1

PAK6 = molecular target: T20, PAK6 (Homo sapiens, UniProt Q9NQU5); assay: Off-Target Kinase Profiling; type: biochemical; conditions: 10 μM; ATP near Km
T20 construct: purchased Millipore, Inc. (KinaseProfiler service)
Method in brief: as §1

Bmx = molecular target: T21, Bmx (Homo sapiens, UniProt P51813); assay: Off-Target Kinase Profiling; type: biochemical; conditions: 10 μM; ATP near Km
T21 construct: purchased Millipore (KinaseProfiler service)
Method in brief: as §1

MAPKAP-K2 = molecular target: T22, MAPKAP-K2 (Homo sapiens, UniProt P49137); assay: Off-Target Kinase Profiling; type: biochemical; conditions: 10 μM; ATP near Km
T22 construct: purchased Millipore, Inc. (KinaseProfiler service)
Method in brief: as §1

PKCiota = molecular target: T23, PKCiota (Homo sapiens, UniProt P41743); assay: Off-Target Kinase Profiling; type: biochemical; conditions: 10 μM; ATP near Km
T23 construct: purchased Millipore, Inc. (KinaseProfiler service)
Method in brief: as §1

LIMK1 = molecular target: T24, LIMK1 (Homo sapiens, UniProt P53667); assay: Off-Target Kinase Profiling; type: biochemical; conditions: 10 μM; ATP near Km
T24 construct: purchased Millipore, Inc. (KinaseProfiler service)
Method in brief: as §1

MELK = molecular target: T25, MELK (Homo sapiens, UniProt Q14680); assay: Off-Target Kinase Profiling; type: biochemical; conditions: 10 μM; ATP near Km
T25 construct: purchased Millipore, Inc. (KinaseProfiler service)
Method in brief: as §1

T12 sequence (P12931 whole entry): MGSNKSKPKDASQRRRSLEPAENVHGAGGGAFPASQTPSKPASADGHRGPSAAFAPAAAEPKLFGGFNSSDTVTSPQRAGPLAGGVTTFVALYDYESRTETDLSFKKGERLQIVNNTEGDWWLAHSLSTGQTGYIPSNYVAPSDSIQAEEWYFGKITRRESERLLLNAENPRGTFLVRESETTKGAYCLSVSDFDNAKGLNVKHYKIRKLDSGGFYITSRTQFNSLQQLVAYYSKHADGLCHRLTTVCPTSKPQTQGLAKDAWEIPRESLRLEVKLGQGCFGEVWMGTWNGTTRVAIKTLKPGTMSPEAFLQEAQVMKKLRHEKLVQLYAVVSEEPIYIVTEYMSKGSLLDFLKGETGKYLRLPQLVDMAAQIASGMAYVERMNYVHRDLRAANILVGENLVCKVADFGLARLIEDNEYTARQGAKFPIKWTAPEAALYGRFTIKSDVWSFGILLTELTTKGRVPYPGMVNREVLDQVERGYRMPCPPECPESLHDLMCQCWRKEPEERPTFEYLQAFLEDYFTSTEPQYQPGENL
T18 sequence (P24723 whole entry): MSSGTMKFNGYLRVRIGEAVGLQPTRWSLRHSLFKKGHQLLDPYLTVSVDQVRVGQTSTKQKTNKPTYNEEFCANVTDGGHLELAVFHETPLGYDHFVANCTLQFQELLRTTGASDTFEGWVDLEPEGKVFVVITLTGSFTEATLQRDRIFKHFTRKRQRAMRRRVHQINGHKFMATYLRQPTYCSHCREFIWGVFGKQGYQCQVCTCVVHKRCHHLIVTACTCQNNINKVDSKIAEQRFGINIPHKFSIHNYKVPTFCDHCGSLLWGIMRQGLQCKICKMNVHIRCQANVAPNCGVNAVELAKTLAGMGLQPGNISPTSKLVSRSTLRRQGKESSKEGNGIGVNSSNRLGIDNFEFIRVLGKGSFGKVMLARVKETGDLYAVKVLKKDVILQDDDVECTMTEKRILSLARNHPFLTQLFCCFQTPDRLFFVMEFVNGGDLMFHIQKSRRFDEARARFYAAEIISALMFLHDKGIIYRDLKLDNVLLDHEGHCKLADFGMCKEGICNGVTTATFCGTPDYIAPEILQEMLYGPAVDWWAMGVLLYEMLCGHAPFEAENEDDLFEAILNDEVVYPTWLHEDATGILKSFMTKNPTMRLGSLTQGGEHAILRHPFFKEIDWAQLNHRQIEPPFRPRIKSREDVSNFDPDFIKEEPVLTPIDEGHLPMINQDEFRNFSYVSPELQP
T16 sequence (P00519 whole entry): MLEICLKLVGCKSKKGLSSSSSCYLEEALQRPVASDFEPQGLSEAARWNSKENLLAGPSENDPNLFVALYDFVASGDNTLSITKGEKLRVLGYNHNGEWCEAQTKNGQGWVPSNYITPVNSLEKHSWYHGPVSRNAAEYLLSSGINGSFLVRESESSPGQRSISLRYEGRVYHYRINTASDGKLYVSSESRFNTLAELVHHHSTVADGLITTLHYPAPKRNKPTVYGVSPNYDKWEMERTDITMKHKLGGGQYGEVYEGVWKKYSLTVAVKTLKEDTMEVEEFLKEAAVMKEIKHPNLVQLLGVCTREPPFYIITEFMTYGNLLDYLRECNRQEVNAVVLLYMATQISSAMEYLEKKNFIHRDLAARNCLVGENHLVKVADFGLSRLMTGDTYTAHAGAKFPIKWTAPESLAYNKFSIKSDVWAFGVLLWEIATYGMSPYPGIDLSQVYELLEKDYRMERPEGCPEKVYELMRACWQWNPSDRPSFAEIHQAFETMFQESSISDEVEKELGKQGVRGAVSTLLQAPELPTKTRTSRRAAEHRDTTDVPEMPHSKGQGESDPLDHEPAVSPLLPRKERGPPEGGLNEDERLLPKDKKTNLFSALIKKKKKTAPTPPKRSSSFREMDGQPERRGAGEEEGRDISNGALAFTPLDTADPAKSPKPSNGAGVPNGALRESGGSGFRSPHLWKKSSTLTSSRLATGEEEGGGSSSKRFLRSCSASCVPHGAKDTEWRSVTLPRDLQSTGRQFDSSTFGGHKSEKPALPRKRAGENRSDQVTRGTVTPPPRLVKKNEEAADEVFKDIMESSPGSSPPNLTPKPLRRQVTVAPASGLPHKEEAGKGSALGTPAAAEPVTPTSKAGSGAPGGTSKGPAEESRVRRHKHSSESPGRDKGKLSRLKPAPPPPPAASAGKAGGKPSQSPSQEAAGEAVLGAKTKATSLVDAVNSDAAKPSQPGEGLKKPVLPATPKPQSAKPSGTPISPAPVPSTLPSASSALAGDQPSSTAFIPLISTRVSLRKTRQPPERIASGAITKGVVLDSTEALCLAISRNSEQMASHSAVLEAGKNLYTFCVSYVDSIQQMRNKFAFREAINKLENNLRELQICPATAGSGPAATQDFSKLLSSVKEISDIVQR
T6 sequence (P07948 whole entry): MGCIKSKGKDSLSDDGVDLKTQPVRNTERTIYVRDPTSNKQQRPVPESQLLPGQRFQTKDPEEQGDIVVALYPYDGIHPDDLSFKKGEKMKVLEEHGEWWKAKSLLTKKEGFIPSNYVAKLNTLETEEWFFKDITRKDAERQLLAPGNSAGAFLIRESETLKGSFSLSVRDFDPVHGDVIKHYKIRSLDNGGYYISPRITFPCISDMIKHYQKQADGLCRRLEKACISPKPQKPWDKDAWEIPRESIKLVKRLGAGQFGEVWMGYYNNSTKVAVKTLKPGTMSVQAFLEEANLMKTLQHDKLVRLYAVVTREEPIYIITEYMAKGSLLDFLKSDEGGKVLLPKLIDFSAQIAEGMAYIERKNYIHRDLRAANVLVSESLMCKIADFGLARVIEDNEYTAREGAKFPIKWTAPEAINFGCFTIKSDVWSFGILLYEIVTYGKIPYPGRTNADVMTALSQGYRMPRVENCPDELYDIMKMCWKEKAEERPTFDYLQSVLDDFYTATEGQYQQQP
T21 sequence (P51813 whole entry): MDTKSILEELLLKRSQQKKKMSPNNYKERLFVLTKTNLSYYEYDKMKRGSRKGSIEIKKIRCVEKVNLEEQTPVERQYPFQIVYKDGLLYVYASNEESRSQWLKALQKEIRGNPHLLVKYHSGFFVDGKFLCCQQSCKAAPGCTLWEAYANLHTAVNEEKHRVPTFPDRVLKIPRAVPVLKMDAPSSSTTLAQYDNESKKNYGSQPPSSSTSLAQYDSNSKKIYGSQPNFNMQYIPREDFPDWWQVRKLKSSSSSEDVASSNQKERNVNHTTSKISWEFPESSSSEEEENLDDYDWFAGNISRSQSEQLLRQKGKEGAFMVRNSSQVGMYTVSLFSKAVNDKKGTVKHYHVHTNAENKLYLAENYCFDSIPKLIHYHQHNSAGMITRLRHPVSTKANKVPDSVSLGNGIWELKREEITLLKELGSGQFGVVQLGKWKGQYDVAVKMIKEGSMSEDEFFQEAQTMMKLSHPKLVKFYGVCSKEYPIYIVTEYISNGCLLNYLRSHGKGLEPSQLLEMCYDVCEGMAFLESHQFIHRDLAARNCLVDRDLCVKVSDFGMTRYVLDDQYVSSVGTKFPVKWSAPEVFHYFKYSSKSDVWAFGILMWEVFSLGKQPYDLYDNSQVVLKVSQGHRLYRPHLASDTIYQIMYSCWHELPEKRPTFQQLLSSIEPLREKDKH
T17 sequence (P06493 whole entry): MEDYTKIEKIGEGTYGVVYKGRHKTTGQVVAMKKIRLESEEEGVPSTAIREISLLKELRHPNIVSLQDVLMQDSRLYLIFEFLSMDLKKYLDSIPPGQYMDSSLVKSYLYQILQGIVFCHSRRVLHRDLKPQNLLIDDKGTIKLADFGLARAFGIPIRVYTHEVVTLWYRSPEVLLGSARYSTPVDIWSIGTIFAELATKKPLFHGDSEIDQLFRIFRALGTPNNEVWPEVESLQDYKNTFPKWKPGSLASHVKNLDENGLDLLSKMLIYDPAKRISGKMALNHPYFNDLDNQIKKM
T17 sequence (P14635 whole entry partner): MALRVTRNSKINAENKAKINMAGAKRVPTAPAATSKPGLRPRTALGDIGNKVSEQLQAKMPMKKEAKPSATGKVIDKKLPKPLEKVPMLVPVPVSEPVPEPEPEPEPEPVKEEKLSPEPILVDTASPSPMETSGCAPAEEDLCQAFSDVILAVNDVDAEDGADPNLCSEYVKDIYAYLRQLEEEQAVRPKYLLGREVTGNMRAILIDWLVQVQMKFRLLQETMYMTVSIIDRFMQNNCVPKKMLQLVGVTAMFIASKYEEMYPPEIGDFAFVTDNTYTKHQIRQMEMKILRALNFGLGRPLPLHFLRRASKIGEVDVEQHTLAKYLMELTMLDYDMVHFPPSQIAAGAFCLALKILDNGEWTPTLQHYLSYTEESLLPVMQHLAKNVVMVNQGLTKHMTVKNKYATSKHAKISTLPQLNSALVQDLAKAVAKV
T25 sequence (Q14680 whole entry): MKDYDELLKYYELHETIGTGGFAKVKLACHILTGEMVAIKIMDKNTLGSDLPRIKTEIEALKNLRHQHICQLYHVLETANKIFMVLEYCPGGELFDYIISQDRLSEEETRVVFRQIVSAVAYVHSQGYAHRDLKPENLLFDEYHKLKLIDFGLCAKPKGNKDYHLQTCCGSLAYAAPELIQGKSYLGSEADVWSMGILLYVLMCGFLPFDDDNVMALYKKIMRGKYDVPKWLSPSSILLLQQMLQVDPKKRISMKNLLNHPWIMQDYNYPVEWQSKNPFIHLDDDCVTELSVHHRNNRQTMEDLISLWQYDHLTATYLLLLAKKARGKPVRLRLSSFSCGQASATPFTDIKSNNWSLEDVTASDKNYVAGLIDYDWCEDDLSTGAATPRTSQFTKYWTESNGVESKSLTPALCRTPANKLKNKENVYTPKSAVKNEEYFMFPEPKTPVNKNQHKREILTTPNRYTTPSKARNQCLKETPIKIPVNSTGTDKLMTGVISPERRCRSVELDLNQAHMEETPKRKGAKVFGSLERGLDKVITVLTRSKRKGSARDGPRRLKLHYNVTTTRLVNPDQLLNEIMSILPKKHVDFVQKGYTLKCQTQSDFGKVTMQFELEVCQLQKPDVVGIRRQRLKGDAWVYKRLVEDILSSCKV

Row | Structure (SMILES) | IC50 [1] | Avg POC MuSK (MuSK) | Avg POC LOK (LOK) | Avg POC CK1gamma2 (CK1gamma2) | Avg POC MRCKbeta (MRCKbeta) | Avg POC Lyn (Lyn) | Avg POC WNK2 (WNK2) | Avg POC MARK1 (MARK1) | Avg POC CK2alpha2 (CK2alpha2) | Avg POC Ret (Ret) | Avg POC CAMK2d (CAMK2d) | Avg POC SRC (SRC) | Avg POC RIPK2 (RIPK2) | Avg POC JNK2alpha2 (JNK2alpha2) | Avg POC IRR (IRR) | Avg POC Abl-P (Abl-P) | Avg POC CDK1/cyclinB (CDK1/cyclinB) | Avg POC PKCeta (PKCeta) | Avg POC TLK2 (TLK2) | Avg POC PAK6 (PAK6) | other results
1 | COCc1ccc(C2CCC2)c(CNC(=O)Nc2c(C)c(-c3cnc(C)nc3)nn2-c2ccccc2)c1 [Example 10, 1-(2-cyclobutyl-5-(methoxymethyl)benzyl)-3-(4-methyl-3-(2-methylpyrimidin-5-yl)-1-phenyl-1H-pyrazol-5-yl)urea] | < 100 nM | 95 POC | 101 POC | 69.5 POC | 108.5 POC | 86 POC | 109 POC | 97 POC | 109 POC | 89.5 POC | 126.5 POC | 96 POC | 99 POC | 81.5 POC | 96 POC | 97 POC | 92 POC | 86.5 POC | 97.5 POC | 95.5 POC | Avg POC Bmx (Bmx): 100 POC; Avg POC MAPKAP-K2 (MAPKAP-K2): 106 POC; Avg POC PKCiota (PKCiota): 65.5 POC; Avg POC LIMK1 (LIMK1): 92 POC; Avg POC MELK (MELK): 83.5 POC
2 | COCc1ccc(C(F)(F)F)c(CNC(=O)Nc2c(C)c(-c3cnn(C)c3)nn2-c2ccccc2)c1 [Example 33, 1-(1′,4-dimethyl-1-phenyl-1H,1′H-[3,4′-bipyrazol]-5-yl)-3-(5-(methoxymethyl)-2-(trifluoromethyl)benzyl)urea] | < 100 nM | 94.5 POC | 93.5 POC | 113.5 POC | 116.5 POC | 104.5 POC | 140.5 POC | 109.5 POC | 99.5 POC | 91 POC | 118 POC | 101 POC | 98.5 POC | 89.5 POC | 96.5 POC | 170.5 POC | 99 POC | 98 POC | 109 POC | 147.5 POC | Avg POC Bmx (Bmx): 127.5 POC; Avg POC MAPKAP-K2 (MAPKAP-K2): 146 POC; Avg POC PKCiota (PKCiota): 64 POC; Avg POC LIMK1 (LIMK1): 91.5 POC; Avg POC MELK (MELK): 114 POC
